Source: US20100166701A1, “METHOD FOR TREATING RENAL CELL CARCINOMA USING GLYCOGENOLYSIS INHIBITORS” (priority 2008, published 2010)
“Also recorded” adds a separate entry of the source. Read-outs that look alike come from different tables or passages of the source.

What was measured:
RCC [1] = conditions: clinical trials; cited from earlier work
[2] = cited from earlier work
HIF protein = test: Immunoblot of HIF protein levels in Caki-2 cells; type: cell-based, human; conditions: 100 μM, 20 mM glucose, 24 h
Description: (§1) To test this hypothesis it was first necessary to establish an in vitro model of glycogenosis in a relevant clear cell renal cell carcinoma (ccRCC) cell type (CAKI-2 cells). It was first necessary to induce levels of glycogenosis similar to those measured in human disease. We obtained human RCC biopsies (FIG. 4 B) and compared glycogen levels with neighboring grossly uninvolved tissue (GU). There was a 180-fold induction of glycogen levels in human RCC (1±1 to 230±40 μg glucose/mg protein, p<0.01). We treated human Caki-2 RCC cells with known activators of hypoxia pathway in 20 mM glucose for 24 h: 100 μM cobalt chloride, 100 μM desferrioxamine (DFO), and hypoxia (pO2=1%) (FIG. 4 A).

CAKI-2 cells [3] = test: Cell death by propidium iodide inclusion (FACScan) under nutrient deprivation and azide; type: cell-based, human
Description: The invention was tested in an in vitro model. CAKI-2 cells were pre-incubated in the presence of 300 μM desferrioximine (DFO, solid line) in RPMI1640 and 10% fetal calf serum to induce the accumulation of glycogen. After 16 hours the media was changed to DMEM with 0 mM glucose and 0 mM pyruvate for 4 hours, to mimic the absence of nutrient as present in the interior of a tumor or resulting from treatment with anti-angiogenic inhibitors, increasing concentrations of sodium azide (0 to 100 mM) to mimic the absence of oxygen, and the presence or absence of 60 μM CP-316819 to specifically target glycogenolysis (CP, closed circles). Cells were then trypsinized, collected, treated with 0.1 mg propidium iodide in KRBH buffer (25 mM HEPES 7.4, 120 mM NaCl, 4.6 mM KCl, 1.9 mM CaCl2, 1 mM MgSO4, and 1.2 mM KH2PO4), and analyzed for cell death by measuring inclusion of propidium iodide on a FACScan instrument ([…]).

human Caki-2 RCC cells = test: Induction of glycogenosis in Caki-2 RCC cells by activators of the hypoxia pathway; type: cell-based
Description: as §1, with “There was a 180-fold induction of glycogen levels in human RCC (1±1 to 230±40 μg glucose/mg protein, p<0.01).” left out
We therefore repeated the induction of glycogenosis with DFO after prior treatment with HIF-1α RNAi (FIG. 5).

pancreatic tumor cells = conditions: cited from earlier work
prostate cancer cells = conditions: cited from earlier work
RCC [4] = conditions: high dose, cited from earlier work
CAKI-2 cells [5] = test: Glycogen mobilization in glucose-starved CAKI-2 cells; type: cell-based, human
Description: Caki-2 cells loose glycogen when starved of glucose in the media and not when there was abundant glucose (p<0.05). As proposed in the invention glycogen reserves are responsive to the metabolic status of the carcinoma cell and are mobilized in response to metabolic stress.
We also tested whether glycogen mobilization could be inhibited pharmacologically (FIG. 6B). We therefore treated glucose-starved CAKI-2 cells with two types of glycogenolysis inhibitor: CP-316819 (▪), which inhibits glycogen phosphorylase and NN-DNJ (♦), which inhibits lysosomal glycogen breakdown. […] After 4 h glycogen loss was restricted to 25% and roughly ⅓^rd was still present after 20 h in glucose free media (p<0.05).

[6] = 100 μM, 20 mM glucose, 24 h, Caki-2 cells

CCN(CC)CCNC(=O)c1c(C)[nH]c(/C=C2\C(=O)Nc3ccc(F)cc32)c1C [sunitinib malate]
median increase in survival (RCC [1]): 16.4 months | response (RCC [1]): 24% to 40% | stable disease, additional patients (RCC [1]): 27% to 46%

CCCCCCCCCN1C[C@H](O)[C@@H](O)[C@H](O)[C@H]1CO [NN-DNJ, N-(n-Nonyl)deoxynojirimycin]
duration of sustained increases in hepatic glycogen levels ([2]; mice): at least 120 days | body weight ([2]; mouse, in vivo): did not lose body weight | hypoglycemia ([2]; mouse, in vivo): did not suffer hypoglycemia below normal fasting levels

CC(=O)N(O)CCCCCNC(=O)CCC(=O)N(O)CCCCCNC(=O)CCC(=O)N(O)CCCCCN [DFO, desferrioxamine]
stabilization of HIF protein levels (HIF protein): able to stabilize HIF protein levels | resistance to cell death (CAKI-2 cells [3]; pre-incubated 300 μM DFO 16 hours, 100 mM azide, 0 mM glucose 4 hours): significantly resistant to cell death | glycogen level (glycogenosis) (human Caki-2 RCC cells; [6]): 320±90 μg glucose/mg protein | increase of glycogen levels (human Caki-2 RCC cells; CAKI-2 cells, DFO treatment): 9 fold

O=C(N[C@@H](Cc1ccc(F)cc1)C(=O)N1CCC(O)CC1)c1cc2cc(Cl)ccc2[nH]1 [CP-320626]
flux into fatty acid synthesis and the pentose phosphate cycle (pancreatic tumor cells; concentrations below those required for anti-proliferative and pro-apoptotic effects): inhibited | flux of glucose through the TCA cycle (pancreatic tumor cells; pancreatic tumor cells): decreased

CN(C)C(=O)[C@H](O)[C@H](Cc1ccccc1)NC(=O)c1cc2cc(Cl)ccc2[nH]1 [CP-91149]
glycogen content (prostate cancer cells): two-fold increase | reduction in cell number (prostate cancer cells): 50%

[Cl][Co][Cl] [cobalt chloride]
stabilization of HIF protein levels (HIF protein): only DFO was able to stabilize HIF protein levels | induction of glycogenosis to a level equivalent to human RCC biopsies (human Caki-2 RCC cells; [6]): Only DFO, the iron chelator, was able to induce glycogenosis

bevacizumab: humanized monoclonal antibody, VEGF receptor antagonist
survival (RCC [4]; after three years): no difference in survival | response (RCC [4]): 30%

CP-316819
glycogen loss (CAKI-2 cells [5]; after 4 h, glucose-starved CAKI-2 cells): 25% | glycogen still present (fraction) (CAKI-2 cells [5]; after 20 h in glucose free media): roughly ⅓ | reducing glycogen breakdown (comparison of the two inhibitors) (CAKI-2 cells [5]; glucose-starved CAKI-2 cells): most effective at reducing glycogen breakdown | protection of glycogen-loaded cells against cell death (CAKI-2 cells [3]; 60 μM CP-316819, DFO-pretreated cells, 0 mM glucose, 0 mM pyruvate, 4 hours, sodium azide): this protection is lost; also recorded: removed that protection

ferric ammonium citrate
DFO-dependent glycogen accumulation (human Caki-2 RCC cells; incubated in 150 μM ferric ammonium citrate): did not occur
